Legend:
[1] = Stability in solution during purification; assay type: physicochemical; details: dilute acid solutions vs water at 40° C.
Text: The fraction D (45% D1) from the PFP Prep column was first fractionated on a Waters C-18 column (25×100 mm). The mobile phase was 61% methanol in water with 0.1% TFA. […] A sample of D1 with 100% chromatographic purity (FIG. 35) was produced by further fractionation of the impure D1 on YMC C18-Aq column with 33% acetonitrile/water with 0.1% TFA as the mobile phase. […] Therefore, 0.1% TFA was included in solvents during the purification of D1.

NF-κB = molecular target: T1, NF-κB (Homo sapiens, UniProt P19838+Q04206); test: In vitro NF-κB DNA binding (EMSA on extracts); assay type: biochemical
T1 construct: endogenous in cells; host or cells: Jurkat cells stimulated with TNF; nuclear extract
Description: (underline indicates NF-κB binding sites) for 15 min at 37° C. The incubation mixture included 3 μg of poly (dI:dC) in a binding buffer (25 mM HEPES, pH 7.9, 0.5 mM EDTA, 0.5 mM DTT, 1% NP-40, 5% glycerol, 50 mM NaCl). The DNA-protein complex was separated from the free oligonucleotide on a 7.5% polyacrylamide gel. The specificity of NF-κB-DNA binding was examined by competition with a double stranded mutated oligonucleotide, unlabeled oligonucleotide and by supershift of the band by anti-p65 antibody. The radioactive bands from dried gels were visualized on a PhosphoImager (Molecular Dynamics, Sunnyvale, Calif.) and quantitated using ImageQuant Software.
Monoterpene/triterpene glycoside G Inhibits NF-κB-DNA Binding. […] Therefore, the inventors analyzed the effect of monoterpene/triterpene glycoside G1 on the ability of active NF-κB to bind to DNA in a cell-free system. Nuclear extracts from TNF-stimulated cells were incubated with increasing concentrations of monoterpene/triterpene glycoside G1. […] Deoxycholate (DOC) is known to dissociate NF-κB from IκB, thereby making it available in an active nuclear form.

[2] = system: p65 subunit of NF-κB in Jurkat cells; test: Western blot of nuclear translocation of p65; assay type: cell-based, human; details: 2 μg/ml 16 hours, TNF 1 nM
Description: (§1) Western Blot Analysis. Cytoplasmic and nuclear extracts of Jurkat cells treated with monoterpene/triterpene glycoside G1 were used to study the degradation of IκB and nuclear translocation of the p65 subunit of NF-κB respectively. Then, 50 μg of the cytoplasmic or nuclear protein were resolved on a 9% SDS-polyacrylamide gel and electrotransferred onto a nitrocellulose membrane. The membranes were probed with rabbit anti-IκBα or rabbit anti-p65 antibody (Santa Cruz, Calif.) followed with anti-rabbit antibody conjugated to horseradish peroxidase (HRPO). Protein bands were detected by chemiluminescence (ECL, Amersham).

[3] = system: mitochondrial fraction of Jurkat cells; test: Cytochrome c release in a cell free system; assay type: biochemical, human; details: isolated mitochondria
Description: Isolation of the Submitochondrial Fraction. Jurkat cells (1.5-2.0×10^7) were suspended in 1 ml sucrose buffer (250 mM sucrose in 30 mM Tris-HCl pH 7.4) and transferred into an N2 cavitation chamber (PARR Instruments Company, Moline, Ill.). The cells were subjected to N2 cavitation (300 psi for 5 min) as per the manufacturer's instructions. Under these conditions most of the cell membrane was disrupted with no change in the mitochondrial respiratory activity. Next, DNA and the nuclear fraction were removed by centrifugation (1500 g, 30 sec). The supernatant was further centrifuged (16000 g, 10 min) and the pellet was used as the submitochondrial fraction.
To observe if monoterpene/triterpenoid saponins directly affected mitochondria to induce apoptosis, experiments were carried out using avicin G in a cell free system. Mitochondria were isolated from Jurkat cells by the N2 cavitation method.

iNOS in RAW 264.7 cells = test: LPS-induced iNOS expression (western blot); assay type: cell-based; details: RAW264.7; 2 μg/ml 16 h; LPS 100 ng/ml
Description: (§2) Induction and Measurement of iNOS and COX-2. RAW 264.7 cells (0.5×10^6/ml) were plated in 100 mm dishes and treated with F094 or monoterpene/triterpene glycosides (2 μg/ml) for 16 h. Next, the cells were exposed to 100 ng/ml of LPS for 24 h. Cells were lysed in a buffer containing 50 mM Tris, pH 7.4, 100 mM NaCl, 0.5% NP-40, 10 μg/ml leupeptin, 5 μg/ml aprotinin, and 100 μM PMSF. 70 μg of cellular protein were then loaded on a 7.5% SDS-polyacrylamide gel and electrotransferred onto a nitrocellulose membrane. Levels of iNOS and COX-2 were analyzed by Western blot analysis using rabbit anti-iNOS (Santa Cruz) and goat anti-COX-2 antibodies respectively.

IκBα in Jurkat cells = test: Western blot of IκBα degradation; assay type: cell-based, human; details: 2 μg/ml 16 hours, TNF 1 nM
Description: as §1

[4] = system: pGL3-NF-κB in Jurkat cells; test: NF-κB dependent luciferase gene expression; assay type: cell-based, human; details: transfected Jurkat; pretreatment
Description: Transfection and Assay of Luciferase Activity. Jurkat cells were transfected with pGL3-NF-κB by electroporation. The cells were then treated with monoterpene/triterpene glycoside G1 (1 μg/ml) for 16 h. NF-κB was activated using LPS (100 ng/ml), PMA (5 ng/ml), or TNF (1 nM). Luciferase activity was measured using the luciferase assay kit (Promega, Madison, Wis.) as per the manufacturer's instructions.

COX-2 in RAW 264.7 cells = test: LPS-induced COX-2 expression (western blot); assay type: cell-based; details: RAW264.7; 2 μg/ml 16 h; LPS 100 ng/ml
Description: as §2

T1 sequence (Q04206 whole entry): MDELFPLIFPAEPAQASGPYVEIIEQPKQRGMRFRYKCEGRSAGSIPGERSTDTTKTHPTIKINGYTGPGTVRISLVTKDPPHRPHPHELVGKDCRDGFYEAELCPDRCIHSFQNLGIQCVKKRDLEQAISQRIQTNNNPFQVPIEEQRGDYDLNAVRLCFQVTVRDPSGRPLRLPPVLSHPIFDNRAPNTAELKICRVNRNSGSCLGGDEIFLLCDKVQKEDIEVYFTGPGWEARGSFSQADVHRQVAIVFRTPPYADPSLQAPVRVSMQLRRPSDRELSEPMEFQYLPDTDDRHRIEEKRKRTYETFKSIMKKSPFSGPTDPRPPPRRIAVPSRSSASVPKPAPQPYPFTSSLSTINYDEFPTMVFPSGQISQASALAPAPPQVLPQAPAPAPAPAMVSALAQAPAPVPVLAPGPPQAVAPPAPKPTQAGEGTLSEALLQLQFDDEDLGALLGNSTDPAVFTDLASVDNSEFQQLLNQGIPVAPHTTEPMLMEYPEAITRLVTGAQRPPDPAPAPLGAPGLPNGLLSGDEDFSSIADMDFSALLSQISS
T1 sequence (P19838 1-433 limits assumed): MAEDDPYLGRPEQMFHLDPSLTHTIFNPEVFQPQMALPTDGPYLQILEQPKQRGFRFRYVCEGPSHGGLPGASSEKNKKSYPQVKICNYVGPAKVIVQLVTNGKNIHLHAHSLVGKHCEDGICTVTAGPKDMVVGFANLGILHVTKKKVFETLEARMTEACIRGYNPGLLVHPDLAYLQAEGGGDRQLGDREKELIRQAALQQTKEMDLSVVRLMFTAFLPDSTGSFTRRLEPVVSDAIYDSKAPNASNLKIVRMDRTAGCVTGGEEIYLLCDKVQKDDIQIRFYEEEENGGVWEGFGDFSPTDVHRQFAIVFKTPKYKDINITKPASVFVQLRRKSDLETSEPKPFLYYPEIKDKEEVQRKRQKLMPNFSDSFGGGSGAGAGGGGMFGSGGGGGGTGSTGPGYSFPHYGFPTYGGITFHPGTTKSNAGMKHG

DNA binding of DOC (0.8%) activated NF-κB (NF-κB; cytoplasmic extracts of treated cells) | SMILES | stability in solution [1] | binding of NF-κB to DNA (NF-κB; nuclear extracts from TNF-stimulated cells, 30 min at 37° C.) | nuclear translocation of p65 subunit [2] | peak of cytochrome c release ([3]; 2 μg/ml) [min] | start of cytochrome c release ([3]; 2 μg/ml) | concentration achieving most of the cytochrome c release ([3]; 10 min) [µg/mL] | levels of LPS-induced iNOS (iNOS in RAW 264.7 cells) | pattern of IκB degradation (IκBα in Jurkat cells) | luciferase activity induced by LPS, PMA or TNF [4] | levels of LPS-induced COX-2 (COX-2 in RAW 264.7 cells)
 | C=C[C@](C)(O)CC/C=C(\CO)C(=O)O[C@H]1[C@H](O)[C@@H](O)[C@H](O[C@@](C)(C=C)CC/C=C(\CO)C(=O)O[C@H]2C[C@]3(C(=O)O[C@@H]4O[C@H](CO)[C@@H](O)[C@H](O)[C@H]4O[C@@H]4O[C@@H](C)[C@H](O[C@@H]5O[C@@H](CO)[C@H](O)[C@H]5O)[C@@H](O[C@@H]5O[C@H](CO)[C@@H](O)[C@H](O)[C@H]5O)[C@H]4O)[C@H](O)C[C@]4(C)C(=CC[C@@H]5[C@@]6(C)CC[C@H](O[C@@H]7O[C@H](CO[C@@H]8O[C@H](C)[C@H](O)[C@H](O)[C@H]8O[C@@H]8OC[C@@H](O)[C@H](O)[C@H]8O)[C@@H](O)[C@H](O)[C@H]7NC(C)=O)C(C)(C)[C@@H]6CC[C@]54C)[C@@H]3CC2(C)C)O[C@@H]1C [Fraction D1] | more stable in dilute acid solutions than in water |  |  |  |  |  |  |  |  | 
decreased DNA binding | C=C[C@](C)(O)CC/C=C(\C)C(=O)O[C@H]1[C@H](O)[C@@H](O)[C@H](O[C@@](C)(C=C)CC/C=C(\CO)C(=O)O[C@H]2C[C@]3(C(=O)O[C@@H]4O[C@H](CO)[C@@H](O)[C@H](O)[C@H]4O[C@@H]4O[C@@H](C)[C@H](O[C@@H]5O[C@@H](CO)[C@H](O)[C@H]5O)[C@@H](O[C@@H]5O[C@H](CO)[C@@H](O)[C@H](O)[C@H]5O)[C@H]4O)[C@H](O)C[C@]4(C)C(=CC[C@@H]5[C@@]6(C)CC[C@H](O[C@@H]7O[C@H](CO[C@@H]8O[C@H](C)[C@H](O)[C@H](O)[C@H]8O[C@@H]8OC[C@@H](O)[C@H](O)[C@H]8O)[C@@H](O)[C@H](O)[C@H]7NC(C)=O)C(C)(C)[C@@H]6CC[C@]54C)[C@@H]3CC2(C)C)O[C@@H]1C [Fraction G1] |  | inhibited the binding of NF-κB to DNA in a dose-dependent manner | slows down nuclear translocation of the p65 subunit considerably | 5 to 10 | a minute | 0.5 to 2.0 | decreases the levels of LPS-induced iNOS and COX-2 sharply | no difference | significantly inhibited | decreases the levels of LPS-induced iNOS and COX-2 sharply

Reference: patent US20060148732A1, “Inhibition of NF-kappaB by triterpene compositions” (priority 2000, published 2006)
